Test results reported in patent US11304946B2, “2-hetarylpyrimidine-4-carboxamides as aryl hydrocarbon receptor antagonists” (Bayer Aktiengesellschaft, priority 2017, dated 2022).

What was measured:
Human AhR = molecular target: T1, Human AhR (Homo sapiens, UniProt P35869); test: Transactivation assay in human cell line (in vitro assay 1: antagonism); assay type: cell-based; details: U87 glioblastoma cells, AHR inducible (DRE) firefly luciferase reporter, 150 μM kynurenic acid, 20 hours
T1 construct: host or cells: U87 glioblastoma cells, stably transfected with DRE-driven firefly luciferase and constitutive renilla reporter constructs
T1 sequence (P35869 11-848): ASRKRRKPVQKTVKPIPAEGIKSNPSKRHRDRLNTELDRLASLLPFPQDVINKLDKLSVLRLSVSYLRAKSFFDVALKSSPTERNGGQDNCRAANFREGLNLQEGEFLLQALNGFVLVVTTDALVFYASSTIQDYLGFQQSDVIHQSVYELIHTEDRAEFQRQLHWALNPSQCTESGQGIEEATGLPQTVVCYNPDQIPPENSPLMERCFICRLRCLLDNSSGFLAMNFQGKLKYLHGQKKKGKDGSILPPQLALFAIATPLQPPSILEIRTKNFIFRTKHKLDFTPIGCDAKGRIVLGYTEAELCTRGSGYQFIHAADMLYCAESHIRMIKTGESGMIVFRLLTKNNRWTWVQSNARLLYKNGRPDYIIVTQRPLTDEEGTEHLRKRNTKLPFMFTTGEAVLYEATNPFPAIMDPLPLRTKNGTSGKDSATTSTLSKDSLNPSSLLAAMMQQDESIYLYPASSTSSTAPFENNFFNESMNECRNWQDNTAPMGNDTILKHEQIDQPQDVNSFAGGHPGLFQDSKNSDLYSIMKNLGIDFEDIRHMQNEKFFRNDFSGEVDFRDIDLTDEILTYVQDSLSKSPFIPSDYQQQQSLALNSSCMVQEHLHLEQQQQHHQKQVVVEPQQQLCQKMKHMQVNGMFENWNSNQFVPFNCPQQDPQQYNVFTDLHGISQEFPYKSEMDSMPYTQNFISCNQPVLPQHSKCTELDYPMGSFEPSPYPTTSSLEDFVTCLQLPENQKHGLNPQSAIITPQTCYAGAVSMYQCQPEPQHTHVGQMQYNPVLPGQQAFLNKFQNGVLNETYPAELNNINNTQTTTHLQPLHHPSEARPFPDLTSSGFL
Procedure: Transactivation Assay in Human Cell Line (In Vitro Assay 1)
(§1) Transactivation assay was carried out in U87 glioblastoma cells (ATCC) endogenously expressing AHR. In addition the cells were stably transfected with an AHR inducible firefly luciferase reporter gene construct that carried AHR-binding sites (DRE) in its promoter and a renilla reporter gene construct with constitutively active promoter. Kynurenic acid is an endogenous AHR activating ligand and was used to prestimulate test cells prior to testing the antagonistic properties of compounds.
In Vitro Assay 1: Antagonism in Human Cell Line
Firefly luciferase and Renilla activity was determined by the DualGlo Luciferase Assay System (Promega, #2920). Renilla activity was used to assess toxic effects of compounds.

Mouse AhR = molecular target: T2, Mouse AhR (Mus musculus, UniProt P30561); test: Transactivation assay in mouse cell line (in vitro assay 2: antagonism); assay type: cell-based; details: Hepa 1c1c7 cells, AHR inducible (DRE) firefly luciferase reporter, 200 μM kynurenic acid, 20 hours
T2 sequence (P30561 1-848): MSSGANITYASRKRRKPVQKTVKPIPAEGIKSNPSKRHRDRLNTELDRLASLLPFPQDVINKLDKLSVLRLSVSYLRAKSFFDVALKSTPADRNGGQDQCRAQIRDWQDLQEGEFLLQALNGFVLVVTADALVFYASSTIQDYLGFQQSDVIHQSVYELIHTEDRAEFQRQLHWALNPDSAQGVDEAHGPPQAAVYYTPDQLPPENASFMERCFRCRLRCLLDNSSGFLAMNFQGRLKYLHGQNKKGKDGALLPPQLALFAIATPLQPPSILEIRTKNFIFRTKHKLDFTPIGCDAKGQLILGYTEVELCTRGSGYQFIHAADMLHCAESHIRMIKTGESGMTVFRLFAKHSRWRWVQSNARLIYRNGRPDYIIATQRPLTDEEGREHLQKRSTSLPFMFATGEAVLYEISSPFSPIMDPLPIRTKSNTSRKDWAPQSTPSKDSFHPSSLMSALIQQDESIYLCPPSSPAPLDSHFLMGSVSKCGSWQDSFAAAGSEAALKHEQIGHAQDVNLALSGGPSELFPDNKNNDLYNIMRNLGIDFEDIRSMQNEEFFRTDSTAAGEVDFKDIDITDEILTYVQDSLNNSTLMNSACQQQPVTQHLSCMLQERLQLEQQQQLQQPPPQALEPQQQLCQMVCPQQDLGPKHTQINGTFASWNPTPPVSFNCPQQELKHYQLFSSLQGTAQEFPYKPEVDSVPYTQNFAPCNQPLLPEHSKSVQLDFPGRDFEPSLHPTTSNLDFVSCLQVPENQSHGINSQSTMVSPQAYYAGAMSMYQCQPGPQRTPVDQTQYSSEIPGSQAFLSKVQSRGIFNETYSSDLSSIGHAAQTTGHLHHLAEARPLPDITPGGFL
Procedure: Transactivation Assay in Mouse Cell Line (In Vitro Assay 2)
as §1, with “Hepa 1c1c7” for “U87 glioblastoma”, “(ATCC #CRL-2026)” for “(ATCC)”, “its” for “its promoter and a renilla reporter gene construct with constitutively active”
In Vitro Assay 2: Antagonism in Mouse Cell Line
Firefly luciferase activity was determined by the SteadyGlo Luciferase Assay System (Promega, #E2550).

Row | Structure (SMILES) | IC50 (Human AhR) [nM] | IC50 (Mouse AhR) [nM]
1 | CC(C)(O)CNC(=O)c1cc(-c2ccc(OC(F)(F)F)cc2)nc(-c2cn[nH]c2)n1 [Example 20, N-(2-hydroxy-2-methylpropyl)-2-(1H-pyrazol-4-yl)-6-[4-(trifluoromethoxy)phenyl]pyrimidine-4-carboxamide] | 717 | 354
2 | Cc1ncc(-c2nc(C(=O)NCC(C)(C)O)cc(-c3ccc(OC(F)(F)F)cc3)n2)cn1 [Example 21, N-(2-hydroxy-2-methylpropyl)-2′-methyl-6-[4-(trifluoromethoxy)phenyl][2,5′-bipyrimidine]-4-carboxamide] | 379 | 2130
3 | CC(C)(O)CNC(=O)c1cc(-c2ccc(OC(F)(F)F)cc2)nc(-c2cnoc2)n1 [Example 22, N-(2-hydroxy-2-methylpropyl)-2-(1,2-oxazol-4-yl)-6-[4-(trifluoromethoxy)phenyl]pyrimidine-4-carboxamide] | 1100 | 5530
4 | Cc1[nH]ncc1-c1nc(C(=O)NCC(C)(C)O)cc(-c2ccc(OC(F)(F)F)cc2)n1 [Example 24, N-(2-hydroxy-2-methylpropyl)-2-(3-methyl-1H-pyrazol-4-yl)-6-[4-(trifluoromethoxy)phenyl]pyrimidine-4-carboxamide] | 208 | 359
5 | C[C@@H](CO)NC(=O)c1cc(-c2ccc(OC(F)(F)F)cc2)nc(-c2ccc(C#N)s2)n1 [Example 28, 2-(5-cyanothiophen-2-yl)-N-[(2S)-1-hydroxypropan-2-yl]-6-[4-(trifluoromethoxy)phenyl]pyrimidine-4-carboxamide] | 167 | 229
6 | Cc1noc(C)c1-c1nc(C(=O)N[C@@H](C)CO)cc(-c2ccc(OC(F)(F)F)cc2)n1 [Example 35, 2-(3,5-dimethyl-1,2-oxazol-4-yl)-N-[(2S)-1-hydroxypropan-2-yl]-6-[4-(trifluoromethoxy)phenyl]pyrimidine-4-carboxamide] | 1030 | 5310
7 | CC(C)Cn1cc(-c2nc(C(=O)N[C@@H](C)CO)cc(-c3ccc(OC(F)(F)F)cc3)n2)cn1 [Example 36, N-[(2S)-1-hydroxypropan-2-yl]-2-[1-(2-methylpropyl)-1H-pyrazol-4-yl]-6-[4-(trifluoromethoxy)phenyl]pyrimidine-4-carboxamide] | 5220 | 10000
8 | C[C@@H](CO)NC(=O)c1cc(-c2ccc(OC(F)(F)F)cc2)nc(-c2cn[nH]c2)n1 [Example 41, N-[(2S)-1-hydroxypropan-2-yl]-2-(1H-pyrazol-4-yl)-6-[4-(trifluoromethoxy)phenyl]pyrimidine-4-carboxamide] | 97.6 | 55.8
9 | CC(C)(O)CNC(=O)c1cc(-c2ccc(Cl)cc2)nc(-c2ccc(C#N)s2)n1 [Example 47, 6-(4-chlorophenyl)-2-(5-cyanothiophen-2-yl)-N-(2-hydroxy-2-methylpropyl)pyrimidine-4-carboxamide] | 317 | 961

These reach a lower IC50 (Human AhR). Values come first.

Row | IC50 (Human AhR) [nM] | IC50 (Mouse AhR) [nM] | Structure (SMILES)
10 | 3.93 | 7.94 | C[C@@H](CO)NC(=O)c1cc(-c2ccc(Cl)cc2)nc(-c2cnn(C)c2)n1 [Example 11, 6-(4-chlorophenyl)-N-[(2S)-1-hydroxypropan-2-yl]-2-(1-methyl-1H-pyrazol-4-yl)pyrimidine-4-carboxamide]
11 | 73.4 | 206 | C[C@H](CO)NC(=O)c1cc(-c2ccc(Cl)cc2)nc(-c2cnn(C)c2)n1 [Example 12, 6-(4-chlorophenyl)-N-[(2R)-1-hydroxypropan-2-yl]-2-(1-methyl-1H-pyrazol-4-yl)pyrimidine-4-carboxamide]
12 | 14.3 | 58.1 | Cn1cc(-c2nc(C(=O)NCC(C)(C)O)cc(-c3ccc(Cl)cc3)n2)cn1 [Example 13, 6-(4-chlorophenyl)-N-(2-hydroxy-2-methylpropyl)-2-(1-methyl-1H-pyrazol-4-yl)pyrimidine-4-carboxamide]
13 | 8.05 | 110 | Cc1nn(C)cc1-c1nc(C(=O)NCC(C)(C)O)cc(-c2ccc(OC(F)(F)F)cc2)n1 [Example 25, 2-(1,3-dimethyl-1H-pyrazol-4-yl)-N-(2-hydroxy-2-methylpropyl)-6-[4-(trifluoromethoxy)phenyl]pyrimidine-4-carboxamide]
14 | 46.2 | 38.8 | C[C@@H](CO)NC(=O)c1cc(-c2ccc(OC(F)(F)F)cc2)nc(-c2ccc(Cl)s2)n1 [Example 32, 2-(5-chlorothiophen-2-yl)-N-[(2S)-1-hydroxypropan-2-yl]-6-[4-(trifluoromethoxy)phenyl]pyrimidine-4-carboxamide]
15 | 29.6 | 24 | C[C@@H](CO)NC(=O)c1cc(-c2ccc(OC(F)(F)F)cc2)nc(-c2ccnn2C)n1 [Example 34, N-[(2S)-1-hydroxypropan-2-yl]-2-(1-methyl-1H-pyrazol-5-yl)-6-[4-(trifluoromethoxy)phenyl]pyrimidine-4-carboxamide]
16 | 71.7 | 93 | C[C@@H](CO)NC(=O)c1cc(-c2ccc(OC(F)(F)F)cc2)nc(-c2cc[nH]n2)n1 [Example 37, N-[(2S)-1-hydroxypropan-2-yl]-2-(1H-pyrazol-3-yl)-6-[4-(trifluoromethoxy)phenyl]pyrimidine-4-carboxamide]
17 | 68.4 | 431 | Cc1ccc(-c2nc(C(=O)N[C@@H](C)CO)cc(-c3ccc(OC(F)(F)F)cc3)n2)cn1 [Example 39, N-[(2S)-1-hydroxypropan-2-yl]-2-(6-methylpyridin-3-yl)-6-[4-(trifluoromethoxy)phenyl]pyrimidine-4-carboxamide]
18 | 4.24 | 42.6 | COc1ccncc1-c1nc(C(=O)N[C@@H](C)CO)cc(-c2ccc(OC(F)(F)F)cc2)n1 [Example 40, N-[(2S)-1-hydroxypropan-2-yl]-2-(4-methoxypyridin-3-yl)-6-[4-(trifluoromethoxy)phenyl]pyrimidine-4-carboxamide]
19 | 25.2 | 271 | Cc1nn(C)cc1-c1nc(C(=O)N[C@@H](C)CO)cc(-c2ccc(OC(F)(F)F)cc2)n1 [Example 43, 2-(1,3-dimethyl-1H-pyrazol-4-yl)-N-[(2S)-1-hydroxypropan-2-yl]-6-[4-(trifluoromethoxy)phenyl]pyrimidine-4-carboxamide]
20 | 36.6 | 41.1 | Cn1nccc1-c1nc(C(=O)NCC(C)(C)O)cc(-c2ccc(Cl)cc2)n1 [Example 54, 6-(4-chlorophenyl)-N-(2-hydroxy-2-methylpropyl)-2-(1-methyl-1H-pyrazol-5-yl)pyrimidine-4-carboxamide]
21 | 10.3 | 17.3 | CC(C)(O)CNC(=O)c1cc(-c2ccc(Cl)cc2)nc(-c2cncnc2)n1 [Example 55, 6-(4-chlorophenyl)-N-(2-hydroxy-2-methylpropyl)[2,5′-bipyrimidine]-4-carboxamide]
